Test results reported in ChEMBL document CHEMBL6182898, “Design, synthesis and bioevaluation of novel hydrazide derivatives as enhancers of immunotherapy and DNA-damage response in antitumor therapy” (Eur J Med Chem, 2025).

Tests used:
[1] = tested on: SK-OV-3; assay: cells; type: functional; conditions: Homo sapiens, time 72 hrs
[2] = tested on: 4T1; assay: cells; type: functional; conditions: Mus musculus, time 72 hrs
[3] = tested on: HCT-116; assay: cells; type: functional; conditions: Homo sapiens, time 72 hrs
[4] = tested on: B16-F10; assay: cells; type: functional; conditions: Mus musculus, time 72 hrs
[5] = tested on: K562; assay: cells; type: functional; conditions: Homo sapiens, time 72 hrs
[6] = tested on: 4T1; assay: Antiproliferative activity against mouse 4T1 cells incubated for 72 hrs by MTT assay; type: functional, cell-based; conditions: 4T1, 72 h
[7] = tested on: SK-OV-3; assay: Antiproliferative activity against human SK-OV-3 cells incubated for 72 hrs by MTT assay; type: functional, cell-based; conditions: SK-OV-3, 72 h
[8] = tested on: HCT-116; assay: Antiproliferative activity against human HCT-116 cells incubated for 72 hrs by MTT assay; type: functional, cell-based; conditions: HCT-116, 72 h
[9] = tested on: B16-F10; assay: Antiproliferative activity against mouse B16-F10 cells incubated for 72 hrs by MTT assay; type: functional, cell-based; conditions: B16-F10, 72 h
[10] = tested on: K562; assay: Antiproliferative activity against human K562 cells incubated for 72 hrs by CCK8 assay; type: functional, cell-based; conditions: K562, 72 h
[11] = Antiproliferative activity against human HK-2 cells incubated for 72 hrs by MTT assay
[12] = target: Histone deacetylase 1 (Homo sapiens, UniProt Q13547); assay: Inhibition of HDAC1 (unknown origin)
Histone deacetylase 1, sequence (Q13547 whole entry): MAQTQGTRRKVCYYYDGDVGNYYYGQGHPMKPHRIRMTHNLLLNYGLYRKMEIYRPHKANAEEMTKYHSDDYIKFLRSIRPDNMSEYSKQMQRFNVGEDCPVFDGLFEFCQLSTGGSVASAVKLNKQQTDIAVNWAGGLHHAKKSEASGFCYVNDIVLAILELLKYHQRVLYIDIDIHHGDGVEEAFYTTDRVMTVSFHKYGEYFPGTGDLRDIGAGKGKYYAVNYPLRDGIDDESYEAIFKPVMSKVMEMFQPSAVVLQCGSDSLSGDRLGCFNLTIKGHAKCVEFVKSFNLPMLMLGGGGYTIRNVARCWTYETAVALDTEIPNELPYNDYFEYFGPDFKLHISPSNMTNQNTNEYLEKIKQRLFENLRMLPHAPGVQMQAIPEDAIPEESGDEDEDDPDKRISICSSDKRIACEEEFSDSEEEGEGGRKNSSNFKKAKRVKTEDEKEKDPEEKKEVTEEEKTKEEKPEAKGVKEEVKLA

[13] = target: Histone deacetylase 3 (Homo sapiens, UniProt O15379); assay: Inhibition of HDAC3 (unknown origin)
Histone deacetylase 3, sequence (O15379 whole entry): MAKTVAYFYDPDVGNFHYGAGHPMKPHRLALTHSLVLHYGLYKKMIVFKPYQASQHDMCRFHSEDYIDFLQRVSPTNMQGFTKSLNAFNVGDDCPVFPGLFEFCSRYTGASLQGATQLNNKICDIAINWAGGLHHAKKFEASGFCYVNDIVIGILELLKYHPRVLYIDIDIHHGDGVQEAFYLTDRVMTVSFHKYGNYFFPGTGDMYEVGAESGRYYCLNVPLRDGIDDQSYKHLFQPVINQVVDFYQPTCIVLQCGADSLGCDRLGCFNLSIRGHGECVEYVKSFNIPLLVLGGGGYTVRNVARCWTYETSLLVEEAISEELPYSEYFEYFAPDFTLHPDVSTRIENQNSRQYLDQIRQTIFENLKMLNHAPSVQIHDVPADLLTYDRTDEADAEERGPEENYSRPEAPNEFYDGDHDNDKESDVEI

[14] = target: T1, Protein deacetylase HDAC6 (Homo sapiens, UniProt Q9UBN7); assay: Inhibition of HDAC6 (unknown origin)
T1 sequence (Q9UBN7 whole entry): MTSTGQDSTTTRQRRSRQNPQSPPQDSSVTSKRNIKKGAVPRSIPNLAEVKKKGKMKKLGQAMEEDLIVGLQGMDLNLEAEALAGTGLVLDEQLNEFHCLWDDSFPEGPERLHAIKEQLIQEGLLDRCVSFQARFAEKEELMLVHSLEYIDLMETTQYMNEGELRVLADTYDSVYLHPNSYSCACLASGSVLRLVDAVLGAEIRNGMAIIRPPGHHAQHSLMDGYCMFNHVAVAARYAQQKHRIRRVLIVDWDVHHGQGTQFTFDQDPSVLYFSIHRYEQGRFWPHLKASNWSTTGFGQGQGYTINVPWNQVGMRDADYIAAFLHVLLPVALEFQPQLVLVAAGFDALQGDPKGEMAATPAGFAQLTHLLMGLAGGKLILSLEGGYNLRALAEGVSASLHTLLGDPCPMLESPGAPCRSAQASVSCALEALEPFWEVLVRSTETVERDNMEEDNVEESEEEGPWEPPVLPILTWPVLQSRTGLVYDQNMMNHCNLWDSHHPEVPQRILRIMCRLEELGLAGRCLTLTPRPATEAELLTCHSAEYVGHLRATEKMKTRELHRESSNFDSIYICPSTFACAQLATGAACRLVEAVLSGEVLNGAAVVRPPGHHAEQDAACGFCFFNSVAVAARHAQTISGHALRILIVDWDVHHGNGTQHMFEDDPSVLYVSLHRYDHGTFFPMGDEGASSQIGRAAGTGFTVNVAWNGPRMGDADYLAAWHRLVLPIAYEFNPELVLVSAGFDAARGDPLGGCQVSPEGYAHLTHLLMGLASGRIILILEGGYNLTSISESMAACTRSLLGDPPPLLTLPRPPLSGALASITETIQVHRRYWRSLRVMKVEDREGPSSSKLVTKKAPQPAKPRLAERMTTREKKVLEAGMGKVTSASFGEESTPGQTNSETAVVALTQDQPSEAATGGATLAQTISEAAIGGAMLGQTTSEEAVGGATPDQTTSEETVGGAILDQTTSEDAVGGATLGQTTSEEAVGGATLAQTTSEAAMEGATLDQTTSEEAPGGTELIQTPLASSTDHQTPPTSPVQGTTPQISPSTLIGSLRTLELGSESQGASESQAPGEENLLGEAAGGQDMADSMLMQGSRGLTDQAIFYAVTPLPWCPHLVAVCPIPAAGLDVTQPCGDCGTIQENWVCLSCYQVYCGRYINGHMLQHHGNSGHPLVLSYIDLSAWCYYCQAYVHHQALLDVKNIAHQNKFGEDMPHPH

[15] = target: T2, Histone deacetylase 8 (Homo sapiens, UniProt Q9BY41); assay: Inhibition of HDAC8 (unknown origin)
T2 sequence (Q9BY41 whole entry): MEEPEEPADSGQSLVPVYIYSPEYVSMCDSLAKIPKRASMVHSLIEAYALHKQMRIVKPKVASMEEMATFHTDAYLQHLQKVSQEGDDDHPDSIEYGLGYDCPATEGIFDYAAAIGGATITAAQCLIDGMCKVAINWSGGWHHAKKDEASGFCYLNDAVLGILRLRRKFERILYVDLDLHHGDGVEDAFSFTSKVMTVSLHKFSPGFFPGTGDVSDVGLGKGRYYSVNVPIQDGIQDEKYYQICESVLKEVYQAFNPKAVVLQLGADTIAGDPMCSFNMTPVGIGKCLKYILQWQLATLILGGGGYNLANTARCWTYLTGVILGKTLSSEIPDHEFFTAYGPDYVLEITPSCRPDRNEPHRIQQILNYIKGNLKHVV

Compound | inhibition at 10 µM [1] [%] | inhibition at 10 µM [2] [%] | inhibition at 10 µM [3] [%] | inhibition at 10 µM [4] [%] | inhibition at 10 µM [5] [%] | IC50 [6] [µM] | IC50 [7] [µM] | IC50 [8] [µM] | IC50 [9] [µM] | IC50 [10] [µM] | IC50 at 72 h [11] [µM] | IC50 [12] [µM] | IC50 [13] [µM] | IC50 [14] [µM] | IC50 [15] [µM]
CCCNNC(=O)CCCCCCNC(=O)c1cnc(-c2c[nH]c3ccccc23)s1 | 53 | 21.8 | 72.7 | < 50 | 67.7 | – | – | – | – | – | – | – | – | – | –
C=CCNNC(=O)CCCCCCNC(=O)c1cnc(-c2ccc(NC(=O)OC(C)(C)C)cc2)s1 | 64.6 | 61.2 | 58.2 | 53.5 | 63.7 | – | – | – | – | – | – | – | – | – | –
CCCNNC(=O)CCCCCNC(=O)c1cnc(-c2cccc3ccccc23)s1 | < 50 | < 20 | 60.6 | < 50 | 67.5 | – | – | – | – | – | – | – | – | – | –
Nc1ccccc1NC(=O)c1ccc(CNC(=O)OCc2cccnc2)cc1 [ENTINOSTAT] | 50.2 | 43.4 | 94.6 | 46.2 | 70.5 | 8.82 | 8.33 | 0.91 | 11 | 0.79 | 13.5 | – | – | – | –
CCCNNC(=O)CCCCCCNC(=O)c1cnc(-c2ccc(OC(F)(F)F)c(OC(F)(F)F)c2)s1 | 62.7 | 20.5 | 88.8 | 54.5 | 69.5 | – | – | – | – | – | – | – | – | – | –
CCCNNC(=O)CCCCCCNC(=O)c1cnc(-c2ccc(Oc3ccccc3)cc2)s1 | 76 | 40.8 | 73.1 | 58 | < 50 | 11.8 | 8.66 | 1.07 | 14.8 | 4.2 | 14.1 | > 5 | 1.88 | > 10 | > 10
CCCNNC(=O)c1ccc(NC(=O)c2cnc(-c3ccccc3C)s2)cc1 | 56.2 | 26.4 | 67.1 | < 50 | 73.2 | 14.5 | 5.57 | 3.45 | 12 | 3.58 | 11.9 | 1.62 | 0.87 | > 10 | > 10
CCCNNC(=O)CCCCCNC(=O)c1cnc(-c2ccc(NC(=O)OC(C)(C)C)cc2)s1 | < 50 | 27.1 | 53.6 | < 50 | 68.9 | – | – | – | – | – | – | – | – | – | –
CC(C)=CCCC(C)CNNC(=O)CCCCCCNC(=O)c1cnc(-c2ccc(NC(=O)OC(C)(C)C)cc2)s1 (stereo unspecified) | 57.2 | 40.5 | 58.7 | 66.8 | 53.5 | – | – | – | – | – | – | – | – | – | –
CCCNNC(=O)CCCCCCNC(=O)c1cnc(-c2ccc3ccccc3c2)s1 | 81.5 | < 20 | 94.7 | 57.6 | < 50 | 14.4 | 4.48 | 4.14 | 11.1 | 2.71 | 10.8 | 3.26 | 0.55 | > 10 | > 10
CCCNNC(=O)CCCCCNC(=O)c1cnc(-c2ccc(Cl)cc2Cl)s1 | < 50 | < 20 | 54 | < 50 | < 50 | – | – | – | – | – | – | – | – | – | –
CCCNNC(=O)CCCCCNC(=O)c1cnc(-c2ccc(OC(F)(F)F)cc2)s1 | < 50 | 31.9 | 62.9 | < 50 | 69.5 | – | – | – | – | – | – | – | – | – | –
CCCNNC(=O)CCCCCCNC(=O)c1cnc(-c2cccc(C)c2)s1 | < 50 | < 20 | 61.7 | < 50 | < 50 | – | – | – | – | – | – | – | – | – | –
CCCNNC(=O)CCCCCNC(=O)c1cnc(-c2ccc(C(F)(F)F)cc2)s1 | 70.9 | 38.9 | < 50 | 59.6 | < 50 | – | – | – | – | – | – | – | – | – | –
CCCNNC(=O)CCCCCNC(=O)c1cnc(-c2ccc(F)cc2F)s1 | < 50 | 21.7 | 62.9 | < 50 | 59.8 | – | – | – | – | – | – | – | – | – | –
CC(C)(C)OC(=O)Nc1ccc(-c2ncc(C(=O)NCCCCCCC(=O)NNCC3CC3)s2)cc1 | 57.5 | 21.4 | 85.8 | 52.1 | 71.3 | – | – | – | – | – | – | – | – | – | –
CCCNNC(=O)c1ccc(NC(=O)c2cnc(-c3ccc(F)cc3)s2)cc1 | < 50 | < 20 | < 50 | < 50 | 69.6 | – | – | – | – | – | – | – | – | – | –
CCCNNC(=O)CCCCCCNC(=O)c1cnc(-c2ccc3c(c2)OCO3)s1 | 86.8 | 22.1 | 68.4 | 59.6 | 68.9 | – | – | – | – | – | – | – | – | – | –
CC(C)CNNC(=O)CCCCCCNC(=O)c1cnc(-c2ccc(NC(=O)OC(C)(C)C)cc2)s1 | 39.2 | 23.9 | 59 | 51 | 55.9 | – | – | – | – | – | – | – | – | – | –
CCCNNC(=O)CCCCCNC(=O)c1cnc(-c2ccc(Cl)cc2)s1 | < 50 | 21.5 | 58.2 | < 50 | < 50 | – | – | – | – | – | – | – | – | – | –
CCCNNC(=O)CCCCCNC(=O)c1cnc(-c2cccc(OC)c2)s1 | < 50 | < 20 | < 50 | < 50 | < 50 | – | – | – | – | – | – | – | – | – | –
CCCCCCCCCNNC(=O)CCCCCCNC(=O)c1cnc(-c2ccc(NC(=O)OC(C)(C)C)cc2)s1 | 45 | < 20 | 59.7 | < 50 | 55.2 | – | – | – | – | – | – | – | – | – | –
CCCNNC(=O)CCCCCNC(=O)c1cnc(-c2c[nH]c3ccccc23)s1 | < 50 | < 20 | 36.5 | < 50 | < 50 | – | – | – | – | – | – | – | – | – | –
CCCNNC(=O)CCCCCNC(=O)c1cnc(-c2ccc3ccccc3c2)s1 | < 50 | < 20 | 58.5 | < 50 | 59.8 | – | – | – | – | – | – | – | – | – | –
CCCNNC(=O)CCCCCCNC(=O)c1cnc(-c2ccc3[nH]ccc3c2)s1 | – | – | – | – | – | 9.82 | 5.06 | 8.15 | 9.36 | 1.46 | 10.1 | 1.57 | 0.42 | > 10 | > 10
